This note sets out measurements from ChEMBL document CHEMBL1201862, “PubChem BioAssay data set” (2004).

Structures are written as SMILES.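 Cultured in 96-well plates, cells were exposed to test compound for 48 hours across five concentrations. GI50 is the concentration that inhibits growth by half.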 Active and inactive are the calls of the source. Cut-off read from the data, not from the text of the source: active = GI50 up to about 1.1 µM and inactive = higher.

Test systems include OVCAR-3; OVCAR-4; SNB-19; LOX IMVI; NCI-H226; MCF7; NCI/ADR-RES; NCI-H522; ACHN; SF-539; Hs-578T; SK-MEL-28; TK-10; COLO 205; K562; A498; BT-549; CCRF-CEM; U-251; OVCAR-8.
Holding throughout (assay): NCI-60 cell line screen, 48 h

For `C=C(C)C1CC2=C(O1)C(=O)c1cccc(O)c1C2=O` (centres undefined), the GI50 is 0.214 µM (active) with OVCAR-3; 0.327 µM (active) in the experiment with OVCAR-4; 1.95 µM (inactive) in the experiment with SNB-19; 4.26 µM (inactive) in the experiment with LOX IMVI; 1.78 µM (inactive) in the experiment with NCI-H226; 0.586 µM (active) with MCF7. The GI50 with NCI/ADR-RES is 1.05 µM (active); in the experiment with NCI-H522, 0.378 µM (active); with ACHN, 1.72 µM (inactive); with SF-539 it was 0.671 µM (active); in the experiment with Hs-578T it was 1.16 µM (inactive); in the experiment with SK-MEL-28, 1.7 µM (inactive). Moreover, the GI50 was 2.5 µM (inactive) with TK-10; 1.75 µM (inactive) with COLO 205; 0.0935 µM (active) with K562; 5.46 µM (inactive) in the experiment on A498; 0.406 µM (active) in the experiment with BT-549; 0.209 µM (active) in the experiment on CCRF-CEM. The GI50 in the experiment on U-251 is 1.43 µM (inactive).

In the case of `COc1cc(S(=O)(=O)Nc2nc(-c3ccc(/N=C/c4ccccc4O)cc3)cs2)ccc1Cl`, the GI50 is 33 µM (inactive) in the experiment with OVCAR-3; 45.6 µM (inactive) with OVCAR-4; 34.2 µM (inactive) with SNB-19; 47 µM (inactive) in the experiment with LOX IMVI; 38.5 µM (inactive) with OVCAR-8; 44.2 µM (inactive) in the experiment on NCI-H226. The GI50 with MCF7 was 27.8 µM (inactive); in the experiment with NCI/ADR-RES, 50.5 µM (inactive); in the experiment on NCI-H522 it was 33.7 µM (inactive); in the experiment on ACHN it was 41.7 µM (inactive); in the experiment with SF-539, 39.4 µM (inactive); in the experiment on Hs-578T, 38.2 µM (inactive). Besides, the GI50 in the experiment with SK-MEL-28 is 65.2 µM (inactive); in the experiment on TK-10, 74.3 µM (inactive); in the experiment with COLO 205, 25.7 µM (inactive); with K562, 30.4 µM (inactive); in the experiment with A498 it was 41.7 µM (inactive); with BT-549 it was 37.4 µM (inactive). The values for the GI50 in the experiment with CCRF-CEM and in the experiment on U-251 were 26.5 µM (inactive) and 36.9 µM (inactive), respectively.

Turning to `COP(=O)(OC)/C(=C/c1cn(C(c2ccccc2)(c2ccccc2)c2ccccc2)cn1)NC=O`, the GI50 in the experiment on OVCAR-3 is 14.9 µM (inactive); in the experiment on OVCAR-4 it was 18.2 µM (inactive); with SNB-19, 35 µM (inactive); in the experiment with LOX IMVI it was 15.9 µM (inactive); in the experiment with OVCAR-8, 21.7 µM (inactive); in the experiment on NCI-H226, 29.5 µM (inactive). Besides, the GI50 is 16 µM (inactive) in the experiment with MCF7; 17.3 µM (inactive) with NCI/ADR-RES; 15.5 µM (inactive) in the experiment with NCI-H522; 12.1 µM (inactive) in the experiment with ACHN; 14.4 µM (inactive) in the experiment on SF-539; 16 µM (inactive) in the experiment on Hs-578T. Besides, the GI50 with SK-MEL-28 was 33.4 µM (inactive); with TK-10, 22.5 µM (inactive); in the experiment with COLO 205 it was 15.4 µM (inactive); in the experiment with K562, 84.9 µM (inactive); with A498 it was 16.6 µM (inactive); in the experiment with BT-549, 16 µM (inactive). Besides, the GI50 was 24.8 µM (inactive) in the experiment on CCRF-CEM and 16.4 µM (inactive) in the experiment on U-251.

Take `COc1cc2c3c(c1)c1cc(OC)c(OC)cc1c[n+]3CC2`: the GI50 was 12.5 µM (inactive) with OVCAR-3; 15 µM (inactive) in the experiment with OVCAR-4; 2.49 µM (inactive) in the experiment with SNB-19; 28.7 µM (inactive) in the experiment with LOX IMVI; 4.32 µM (inactive) with OVCAR-8; 14.2 µM (inactive) in the experiment with NCI-H226. The GI50 with MCF7 was 15.8 µM (inactive); with NCI/ADR-RES, > 50 µM (inactive); in the experiment on NCI-H522 it was 0.927 µM (active); in the experiment on ACHN it was > 50 µM (inactive); in the experiment with SF-539 it was 6.12 µM (inactive); with Hs-578T it was 3.1 µM (inactive). The GI50 with SK-MEL-28 was 22.8 µM (inactive); in the experiment with TK-10, > 50 µM (inactive); with COLO 205 it was 7.29 µM (inactive); with K562 it was 10 µM (inactive); in the experiment with A498 it was > 50 µM (inactive); in the experiment with BT-549 it was 2.63 µM (inactive). Further, the GI50 with CCRF-CEM is > 50 µM (inactive); in the experiment with U-251, 2.22 µM (inactive).

On to `C[C@@H](NC(=O)c1ccc(CNC(=O)/C=C/c2cccc(Oc3ccccc3)c2)cc1)c1ccccc1`, for which the GI50 in the experiment with OVCAR-3 was 72.1 µM (inactive); with OVCAR-4, > 100 µM (inactive); in the experiment with SNB-19, 16.4 µM (inactive); in the experiment with LOX IMVI, > 100 µM (inactive); with OVCAR-8, 32.9 µM (inactive); in the experiment on NCI-H226, 28.4 µM (inactive). For the same compound, the GI50 in the experiment with MCF7 is 97.1 µM (inactive); with NCI/ADR-RES, > 100 µM (inactive); with NCI-H522, > 66.7 µM (inactive); with ACHN it was 12.5 µM (inactive); in the experiment with SF-539, 12.2 µM (inactive); in the experiment on Hs-578T, 7.33 µM (inactive). Moreover, the GI50 was > 100 µM (inactive) in the experiment with SK-MEL-28; 24.9 µM (inactive) in the experiment on TK-10; > 100 µM (inactive) in the experiment with COLO 205; > 100 µM (inactive) in the experiment with K562; 31 µM (inactive) in the experiment on A498; > 94 µM (inactive) with BT-549. Moreover, the GI50 in the experiment on CCRF-CEM is > 100 µM (inactive); with U-251 it was 47.4 µM (inactive).

With `COc1ccc2nccc(NCCCN3CCN(CCCNc4ccnc5ccc(OC)cc45)CC3)c2c1`, the GI50 was 1.22 µM (inactive) in the experiment on OVCAR-3; 1.04 µM (active) in the experiment with OVCAR-4; 0.927 µM (active) with SNB-19; 0.272 µM (active) in the experiment on LOX IMVI; 0.612 µM (active) in the experiment with OVCAR-8; 0.255 µM (active) in the experiment with NCI-H226. In addition, the GI50 was 0.0403 µM (active) in the experiment with MCF7; 18.2 µM (inactive) with NCI/ADR-RES; 0.0334 µM (active) with NCI-H522; 1.45 µM (inactive) in the experiment on ACHN; 0.173 µM (active) in the experiment with SF-539; 0.237 µM (active) with Hs-578T. The GI50 in the experiment on SK-MEL-28 is 1.09 µM (active); in the experiment with TK-10 it was 5.31 µM (inactive); with COLO 205, 0.261 µM (active); in the experiment on K562, 0.228 µM (active); with A498 it was 2.58 µM (inactive); with BT-549 it was 4.27 µM (inactive). Also, the GI50 in the experiment with CCRF-CEM is 0.0828 µM (active); with U-251, 0.232 µM (active).

With `COC(=O)C(Cc1ccccc1)NP(=O)(O)OCC1OC(n2cc(I)c(=O)[nH]c2=O)CC1O` (centres undefined), the GI50 in the experiment with OVCAR-3, in the experiment with OVCAR-4, in the experiment on SNB-19, with LOX IMVI, in the experiment with OVCAR-8 and in the experiment with NCI-H226 was > 100 µM (inactive) throughout. Further, the GI50 in the experiment with MCF7, with NCI/ADR-RES, in the experiment with NCI-H522, with ACHN, in the experiment on SF-539 and in the experiment on Hs-578T was > 100 µM (inactive) each time. For the same compound, the GI50 in the experiment with SK-MEL-28, in the experiment with TK-10, in the experiment with COLO 205, with K562, in the experiment on A498 and in the experiment on BT-549 was > 100 µM (inactive) in each case. The GI50 with CCRF-CEM and with U-251 was > 100 µM (inactive) in each case.
